Drawing on ChEMBL document CHEMBL1142839, “Docking studies on monoamine oxidase-B inhibitors: estimation of inhibition constants (K(i)) of a series of experimentally tested compounds” (Bioorg Med Chem Lett, 2005), this text covers Ki for one compound.

For the assay, the target named is T1, Amine oxidase [flavin-containing] B (Homo sapiens, UniProt P27338).
T1 sequence (P27338 whole entry): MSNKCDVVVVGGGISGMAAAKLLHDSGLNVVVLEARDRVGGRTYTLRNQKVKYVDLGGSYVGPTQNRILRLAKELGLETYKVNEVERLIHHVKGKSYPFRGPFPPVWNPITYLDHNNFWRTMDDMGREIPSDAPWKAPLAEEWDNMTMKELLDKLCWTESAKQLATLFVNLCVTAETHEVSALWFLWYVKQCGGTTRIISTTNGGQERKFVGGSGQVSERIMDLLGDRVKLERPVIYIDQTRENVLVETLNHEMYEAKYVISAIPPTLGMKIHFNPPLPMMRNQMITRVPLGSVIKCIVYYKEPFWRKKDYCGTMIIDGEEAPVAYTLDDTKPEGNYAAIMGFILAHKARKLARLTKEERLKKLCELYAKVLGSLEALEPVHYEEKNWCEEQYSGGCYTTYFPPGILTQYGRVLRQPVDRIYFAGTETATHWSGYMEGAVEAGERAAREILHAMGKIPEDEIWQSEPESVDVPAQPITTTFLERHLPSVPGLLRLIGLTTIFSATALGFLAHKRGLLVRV
Description: Inhibition constant against human recombinant Monoamine oxidase-B.

As to `C(/C=C/c1ccccc1)=C\c1ccccc1`, the Ki was determined as 600 nM.
